Publication PMC7217877, “N-AS-triggered SPMs are direct regulators of microglia in a model of Alzheimer’s disease” (Nature Communications, 2020)
Several values for one entry are separate records, joined by “and”; a condition that tells them apart may be missing. Equal entries are not always repeated.

System: APP/PS1 mice
Assay: Morris water maze test (Fig 6k-q)
Type: in vivo, mouse
Parameters: Morris water maze learning curve (Figure 6k) / Morris water maze learning curve (Figure 6k), group mean (평균) / Morris water maze, Non-Target quadrant (Figure 6l) / Morris water maze, Target quadrant (Figure 6l) / Morris water maze, A0 (Target quadrant) (Figure 6m) / Morris water maze, quadrant A1 (Figure 6m) / Morris water maze, quadrant A2 (Figure 6m) / Morris water maze, quadrant A3 (Figure 6m): unit not given here
Conditions: for Morris water maze learning curve (Figure 6k), group mean (평균): AD/N-AS group mean; for Morris water maze learning curve (Figure 6k): AD/N-AS individual animals
Protocol: Transgenic mouse lines over-expressing the hAPP695swe (APP) and presenilin-1M146V (PS1) mutations were originated from GlaxoSmithKline (Harlow, UK)[32] and maintained as described previously. We purchased 5×FAD mice from Jackson Labs (Stock number. 34840-JAX). Because APP/PS1 and 5xFAD mice show sex differences in disease progression, we used only male mice. To examine possible therapeutic effect of N-AS and aspirin in APP/PS1 mice, the N-AS (30 mg kg^−1, Sigma-Aldrich, 01912) was injected daily s.c. for 8 weeks to 7-months-old APP/PS1 mice until the age of 9 months, and aspirin (2 mg kg^−1, Sigma-Aldrich, A5376)[33] was administrated orally to 7-months-old APP/PS1 mice for 8 weeks. […] Block randomization method was used to allocate the animals to experimental groups. To eliminate the bias, we were blinded in experimental progress such as data collection and data analysis. Mice were housed at temperature of 22 °C and a 12 h day/12 h night cycle with free access to tap water and food pellets. All protocols were approved by the Kyungpook National University Institutional Animal Care and Use Committee. We performed behavioral studies to assess spatial learning and memory in the Morris water maze as previously described[11],[31]. Animals were given four trials per day for 10 days to learn the task. At day 11, animals were given a probe trial in which the platform was removed. Fear conditioning was conducted by previously described techniques. On the conditioning day, mice were individually placed into the conditioning chamber. After a 60 s exploratory period, a tone (10 kHz, 70 dB) was delivered for 10 s; this served as the conditioned stimulus (CS). The CS co-terminated with the unconditioned stimulus (US), a scrambled electrical footshock (0.3 mA, 1 s). The CS-US pairing was delivered twice at a 20 s intertrial interval. On day 2, each mouse was placed in the fear-conditioning chamber containing the same exact context, but with no administration of a CS or foot shock. Freezing was analyzed for 5 min. On day 3, a mouse was placed in a test chamber that was different from the conditioning chamber. After a 60 s exploratory period, the tone was presented for 60 s without the footshock. The rate of freezing response of mice was used to measure the fear memory. The open field test was used for locomotion and anxious behaviors as previously described. The open field box consisted of a square box. Each animal was placed in the box for 10 min. Overall activity in the box was measured, and the amount of time and distance traveled in the center arena was noted. After each trial, the test chambers were cleaned with a damp towel and distilled water followed by 70% alcohol. The light-dark test was used for assessing the anxiety-like behavior as previously described. One chamber was brightly illuminated, whereas the other chamber was dark. Mice were placed into the dark chamber and allowed to move freely between the two chambers with the door open for 10 min. The total number of transitions, latency to first enter the light chamber, distance traveled, and time spent in each chamber were recorded.

[1] = APP/PS1 + N-AS, individual animals

## CCCCCCCCCCCCC/C=C/[C@@H](O)[C@H](CO)NC(C)=O [N-AS, N-((2S,3R,E)-1,3-Dihydroxyoctadec-4-en-2-yl)acetamide]
[1]
  Morris water maze, A0 (Target quadrant) (Figure 6m): 14.5 and 35 and 17.5 and 31.5 and 19.5 and 29.5 and 37.5 and 7.5 and 9.5 and 20 and 10 and 18 and 24 and 10.5 and 30.5 and 43
  Morris water maze, Non-Target quadrant (Figure 6l): 15.1667 and 8.333 and 14.1667 and 9.5 and 13.5 and 10.1667 and 7.5 and 17.5 and 16.8333 and 13.3333 and 16.6667 and 14 and 12 and 16.5 and 9.833 and 5.667
  Morris water maze, Target quadrant (Figure 6l): 14.5 and 35 and 17.5 and 31.5 and 19.5 and 29.5 and 37.5 and 7.5 and 9.5 and 20 and 10 and 18 and 24 and 10.5 and 30.5 and 43
  Morris water maze, quadrant A1 (Figure 6m): 17.5 and 9 (2×) and 20 and 6.5 (2×) and 15.5 (2×) and 32 and 21 and 8.5 and 28 and 14 and 22 and 6 and 3
  Morris water maze, quadrant A2 (Figure 6m): 16 and 9.5 and 14 and 9 and 21.5 and 19 and 2 and 2.5 and 10 and 15 (2×) and 13.5 and 11.5 and 21 and 19.5 and 7
  Morris water maze, quadrant A3 (Figure 6m): 12 and 6.5 (2×) and 8.5 and 13 and 10 and 5 (2×) and 18 and 19.5 and 16.5 and 7 (2×) and 14.5 and 9 and 4
N-AS vs vehicle APP/PS1
  memory formation, Morris water maze: largely protected from this defect
Day 1
  Morris water maze learning curve (Figure 6k), group mean (평균): 42.2833
  Morris water maze learning curve (Figure 6k): 60 and 38.125 and 47.875 and 37.75 and 40.875 and 47.75 and 32.5 and 22.875 and 46 and 29.25 and 55.625
Day 2
  Morris water maze learning curve (Figure 6k), group mean (평균): 36.025
  Morris water maze learning curve (Figure 6k): 40.25 and 39.875 and 60 and 24.625 and 34.625 and 51 and 16.875 and 15.75 and 46.75 and 19.875
Day 3
  Morris water maze learning curve (Figure 6k), group mean (평균): 36.0583
  Morris water maze learning curve (Figure 6k): 37.5 and 38.875 and 60 and 43.625 and 20.125 and 43.25 and 17.375 and 42 and 34.75 and 24.875
Day 4
  Morris water maze learning curve (Figure 6k), group mean (평균): 34.2583
  Morris water maze learning curve (Figure 6k): 37.125 and 35.25 and 60 and 49.75 and 25.875 and 12 and 37.5 and 8.375 and 36.125
Day 5
  Morris water maze learning curve (Figure 6k), group mean (평균): 34.3417
  Morris water maze learning curve (Figure 6k): 43.125 and 17.125 and 55.5 and 30.25 and 26.375 and 55.25 and 23.875 and 38.5 and 13.5 and 31.125
Day 6
  Morris water maze learning curve (Figure 6k), group mean (평균): 32.3333
  Morris water maze learning curve (Figure 6k): 28.5 and 25 and 50.375 and 17.375 and 47.125 and 52.75 and 16.25 and 60 and 13.25 and 35.25
Day 7
  Morris water maze learning curve (Figure 6k), group mean (평균): 30.9667
  Morris water maze learning curve (Figure 6k): 47.875 and 26.5 and 46.5 and 22.75 and 19 and 33.75 and 27.5 and 50.25 and 12.375 and 43
Day 8
  Morris water maze learning curve (Figure 6k), group mean (평균): 23.3417
  Morris water maze learning curve (Figure 6k): 37.125 and 17.75 and 27.875 and 22.625 and 16.625 and 24.375 and 5.5 and 25.125 and 14.875 and 41
Day 9
  Morris water maze learning curve (Figure 6k), group mean (평균): 22.7083
  Morris water maze learning curve (Figure 6k): 32.25 and 21.375 and 17.5 and 11.125 and 27.125 and 18.875 and 12.75 and 21.625 and 50.375 and 15.875
Day 10
  Morris water maze learning curve (Figure 6k), group mean (평균): 21.95
  Morris water maze learning curve (Figure 6k): 23.625 and 39.125 and 23.5 and 13 and 13.75 and 40.75 and 22.25 and 36.625 and 14.75 and 17.75
